According to patent US20130143929A1, “FUNGICIDAL IMIDAZOLES” (EI DU PONT DE NEMOURS AND COMPANY, priority 2010, published 2013):
Marks after values point to notes of the source that are not given here.

How the values were obtained:
Assay type in all cases: in vivo
[1] = test system: Blumeria graminis f. sp. tritici (also known as Erysiphe graminis f. sp. tritici, the causal agent of wheat powdery mildew); test: Test D: wheat powdery mildew, preventive spray on wheat seedlings, visual disease rating; conditions: for Test D rating (100 = 100% disease control, 0 = no disease control relative to the controls): wheat powdery mildew, preventive spray on wheat seedlings; for Test D rating (% disease control, wheat powdery mildew): 100 = 100% disease control
How it was run: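 Compound suspended in acetone/water (50/50) with 250 ppm Trem 014 and sprayed to run-off on wheat seedlings (200 ppm ≈ 800 g/ha), then inoculated next day with spore dust. Disease rated visually after 8 days at 20 °C as % control relative to untreated plants (0-100).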

[2] = test system: Septoria tritici (the causal agent of wheat leaf blotch); test: Test B: wheat leaf blotch, preventive spray on wheat seedlings, visual disease rating; conditions: for Test B rating (100 = 100% disease control, 0 = no disease control relative to the controls): wheat leaf blotch, preventive spray on wheat seedlings; for Test B rating (% disease control, wheat leaf blotch): 100 = 100% disease control
How it was run: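 Wheat seedlings sprayed to run-off with compound suspension (acetone/water with 250 ppm Trem 014; 200 ppm ≈ 800 g/ha, some at 40 ppm), inoculated next day with Septoria tritici spores. 48 h saturated humidity at 24 °C, then 19 days at 20 °C; visual rating, 100 = full control.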

[3] = test system: Botrytis cinerea (the causal agent of tomato Botrytis); test: Test C: tomato Botrytis, preventive spray on tomato seedlings, visual disease rating; conditions: for Test C rating (100 = 100% disease control, 0 = no disease control relative to the controls): tomato Botrytis, preventive spray on tomato seedlings; for Test C rating (% disease control, tomato Botrytis): 100 = 100% disease control
How it was run: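 Test suspension (acetone/water with 250 ppm Trem 014; 200 ppm equivalent to 800 g/ha) sprayed to run-off on tomato seedlings; B. cinerea spores inoculated next day. After 48 h saturated humidity at 20° C then 3 days at 24° C, disease rated visually as % control relative to untreated controls (0–100).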

[4] = test system: Puccinia recondite f. sp. tritici (the causal agent of wheat leaf rust); test: Test A: wheat leaf rust, preventive spray on wheat seedlings, visual disease rating; conditions: for Test A rating (100 = 100% disease control, 0 = no disease control relative to the controls): wheat leaf rust, preventive spray on wheat seedlings; for Test A rating (% disease control, wheat leaf rust): 100 = 100% disease control
How it was run: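 Wheat seedlings were sprayed to run-off with compound suspended in acetone/water containing 250 ppm Trem 014 (200 ppm ≈ 800 g/ha; some at 40 ppm). Puccinia recondite spores were inoculated the next day. Plants were held 24 h saturated at 20° C, then 7 days at 20° C, and disease control was rated visually on a 0–100 scale against controls.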

[5] = no asterisk (standard test suspension concentration, not 40 ppm)
[6] = asterisk: 40 ppm test suspension
[7] = no asterisk: standard test suspension concentration, 0 = no control relative to controls
[8] = asterisk: 40 ppm test suspension, 0 = no control

Structure (SMILES) | Test D rating (100 = 100% disease control, 0 = no disease control relative to the controls) [1, 6] | Test B rating (100 = 100% disease control, 0 = no disease control relative to the controls) [2, 6] | Test C rating (100 = 100% disease control, 0 = no disease control relative to the controls) [3, 6] | Test A rating (100 = 100% disease control, 0 = no disease control relative to the controls) [4, 6] | other results
Cc1nc(Cl)c(C(O)c2c(F)cc(F)cc2F)n1-c1ccc(F)cc1Br (stereo not shown) [compound 155] |  |  |  |  | Test D rating (100 = 100% disease control, 0 = no disease control relative to the controls) [1, 5]: 0%; Test B rating (100 = 100% disease control, 0 = no disease control relative to the controls) [2, 5]: 100%; Test C rating (100 = 100% disease control, 0 = no disease control relative to the controls) [3, 5]: 99%; Test A rating (100 = 100% disease control, 0 = no disease control relative to the controls) [4, 5]: 100%
Cc1nc(C)n(-c2c(F)cc(F)cc2F)c1C(O)c1ccc(F)cc1Cl (stereo not shown) [compound 169] | 0* % | 100* % | 40* % | 100* % | 
Cc1ncc(C(O)c2ccc(Cl)cc2)n1-c1ccc(Cl)cc1Cl (racemic) [compound 242] | 0* % | 50* % | 29* % | 94* % | 
Cc1cc(F)ccc1C(O)c1c(C)nc(Cl)n1-c1c(F)cccc1Br (stereo not shown) [compound 209] | 42* % | 100* % | 100* % | 99* % | 
Cc1cc(F)ccc1C(O)c1c(Cl)nc(Cl)n1-c1c(F)cccc1F (stereo not shown) [compound 43] |  |  |  |  | Test D rating (100 = 100% disease control, 0 = no disease control relative to the controls) [1, 5]: 100%; Test B rating (100 = 100% disease control, 0 = no disease control relative to the controls) [2, 5]: 100%; Test C rating (100 = 100% disease control, 0 = no disease control relative to the controls) [3, 5]: 100%; Test A rating (100 = 100% disease control, 0 = no disease control relative to the controls) [4, 5]: 100%
COc1ccc(C(O)c2c(Br)ncn2-c2ccc(F)cc2Cl)c(Cl)c1 (stereo not shown) [compound 354] | 0* % | 18* % | 0* % | 94* % | 
OC(c1ccc(F)cc1Cl)c1c(Br)nc(C2CC2)n1-c1c(F)cccc1Br (stereo not shown) [compound 150] |  |  |  |  | Test D rating (100 = 100% disease control, 0 = no disease control relative to the controls) [1, 5]: 27%; Test B rating (100 = 100% disease control, 0 = no disease control relative to the controls) [2, 5]: 100%; Test C rating (100 = 100% disease control, 0 = no disease control relative to the controls) [3, 5]: 0%; Test A rating (100 = 100% disease control, 0 = no disease control relative to the controls) [4, 5]: 85%
COc1ccc(C(O)c2c(Cl)ncn2-c2ccc(F)cc2Cl)c(Cl)c1 (stereo not shown) [compound 356] | 0* % | 19* % | 0* % | 95* % | 
OC(c1ccc(F)cc1F)c1c(Br)nc(Cl)n1-c1c(F)cc(Cl)cc1F (stereo not shown) [compound 124] | 0* % | 100* % | 100* % | 100* % | 
Cc1cc(F)ccc1C(O)c1c(Br)nc(C)n1-c1c(F)cc(Cl)cc1F (stereo not shown) [compound 110] | 0* % | 100* % | 0* % | 96* % | 
Cc1cc(F)ccc1C(O)c1c(Cl)nc(C)n1-c1ccc(F)cc1Cl (stereo not shown) [compound 398] |  |  |  |  | Test D rating (% disease control, wheat powdery mildew) [1, 7]: 0%; Test B rating (% disease control, wheat leaf blotch) [2, 7]: 100%; Test C rating (% disease control, tomato Botrytis) [3, 7]: 46%; Test A rating (% disease control, wheat leaf rust) [4, 7]: 100%
Cc1nc(Cl)n(-c2c(F)cccc2Br)c1C(O)c1ccc(F)cc1F (stereo not shown) [compound 205] | 93* % | 100* % | 100* % | 99* % | 
Cc1nc(Cl)c(C(O)c2ccc(C#N)cc2F)n1-c1c(F)cccc1F (stereo not shown) [compound 180] | 0* % | 48* % | 0* % | 0* % | 
Cc1cc(F)ccc1C(O)c1c(Br)nc(C)n1-c1c(F)cc(F)cc1Br (stereo not shown) [compound 408] |  |  |  |  | Test D rating (% disease control, wheat powdery mildew) [1, 7]: 56%; Test B rating (% disease control, wheat leaf blotch) [2, 7]: 100%; Test C rating (% disease control, tomato Botrytis) [3, 7]: 99%; Test A rating (% disease control, wheat leaf rust) [4, 7]: 100%
Cc1nc(Cl)c(C(O)c2ccc(Cl)cc2)n1-c1ccc(Cl)cc1Cl (racemic) [compound 244] | 21* % | 100* % | 78* % | 98* % | 
Cc1nc(Br)c(C(O)c2ccc(F)cc2F)n1-c1ccc(F)cc1Cl (stereo not shown) [compound 399] |  |  |  |  | Test D rating (% disease control, wheat powdery mildew) [1, 7]: 90%; Test B rating (% disease control, wheat leaf blotch) [2, 7]: 100%; Test C rating (% disease control, tomato Botrytis) [3, 7]: 99%; Test A rating (% disease control, wheat leaf rust) [4, 7]: 100%
Cc1ncc(C(O)c2ccc(F)cc2Cl)n1-c1ccc(F)cc1Cl (stereo not shown) [compound 171] |  |  |  |  | Test D rating (100 = 100% disease control, 0 = no disease control relative to the controls) [1, 5]: 0%; Test B rating (100 = 100% disease control, 0 = no disease control relative to the controls) [2, 5]: 100%; Test C rating (100 = 100% disease control, 0 = no disease control relative to the controls) [3, 5]: 95%; Test A rating (100 = 100% disease control, 0 = no disease control relative to the controls) [4, 5]: 100%
Cc1ncc(C(O)c2ccc(F)cc2Br)n1-c1ccc(F)cc1F (racemic) [compound 301] | 0* % | 19* % | 24* % | 97* % | 
Cc1nc(Cl)c(C(O)c2ccc(F)cc2Cl)n1-c1c(F)cc(F)cc1F (stereo not shown) [compound 166] | 43* % | 100* % | 100* % | 100* % | 
COc1ccc(C(O)c2c(Cl)nc(C)n2-c2c(F)cc(F)cc2Cl)c(F)c1 (stereo not shown) [compound 345] | 35* % | 100* % | 99* % | 100* % | 
Cc1nc(Br)c(C(O)c2c(F)cc(Cl)cc2F)n1-c1ccc(F)cc1Br (stereo not shown) [compound 308] | 93* % | 100* % | 100* % | 100* % | 
Cc1nc(Cl)c(C(O)c2ccc(F)cc2Cl)n1-c1ccc(F)cc1F (racemic) [compound 241] | 21* % | 100* % | 99* % | 100* % | 
COc1ccc(C(O)c2c(Br)nc(C)n2-c2c(F)cc(F)cc2Br)c(F)c1 (stereo not shown) [compound 348] | 90* % | 100* % | 98* % | 100* % | 
Cc1nc(Cl)n(-c2c(F)cc(Cl)cc2F)c1C(O)c1ccc(F)cc1F (racemic) [compound 273] | 0* % | 100* % | 99* % | 100* % | 
Cc1nc(Cl)c(C(O)c2ccc(F)cc2Br)n1-c1c(F)cccc1Cl (stereo not shown) [compound 386] |  |  |  |  | Test D rating (% disease control, wheat powdery mildew) [1, 8]: 73* %; Test B rating (% disease control, wheat leaf blotch) [2, 8]: 100* %; Test C rating (% disease control, tomato Botrytis) [3, 8]: 100* %; Test A rating (% disease control, wheat leaf rust) [4, 8]: 100* %
